Measured values from BigSolDB 2.1.

c1ccc2[nH]cnc2c1
solubility (mole fraction)
Conditions	283.15 K	288.15 K	293.15 K	298.15 K	303.15 K	308.15 K	313.15 K	318.15 K	323.15 K
in 1,4-dioxane	0.0138	0.0171	0.0192	0.0215	0.0242	0.0256	0.0292	0.0321	0.0384
in 2-butanone	0.0222	0.0265	0.03	0.0341	0.0393	0.0451	0.0521	0.0582	0.0664
in acetone	0.0192	0.022	0.0256	0.0296	0.0342	0.0398	0.0452	0.0525	0.0576
in acetonitrile	0.00513	0.0063	0.00754	0.00905	0.0107	0.0123	0.0148	0.0166	0.0194
in ethanol	0.0767	0.0837	0.0911	0.0993	0.109	0.118	0.125	0.14	0.152
in ethyl acetate	0.00813	0.0094	0.0108	0.0128	0.0143	0.0167	0.0193	0.0223	0.0259
in isobutanol	0.0747	0.083	0.0947	0.103	0.114	0.125	0.134	0.139	0.156
in isobutyl acetate	0.00698	0.00808	0.00944	0.0103	0.0122	0.0137	0.016	0.0176	0.0197
in isopropanol	0.0636	0.073	0.0785	0.0852	0.0959	0.109	0.117	0.13	0.134
in isopropyl acetate	0.00761	0.00867	0.01	0.0113	0.0132	0.0152	0.0169	0.0191	0.0219
in methanol	0.0888	0.097	0.105	0.113	0.12	0.129	0.143	0.157	0.17
in methyl acetate	0.00781	0.00918	0.0108	0.0126	0.0146	0.0167	0.0198	0.0228	0.0265
in n-butanol	0.0857	0.091	0.105	0.113	0.121	0.13	0.141	0.15	0.161
in n-butyl acetate	0.0064	0.00759	0.00873	0.0102	0.0121	0.0144	0.0166	0.0182	0.0216
in n-pentanol	0.0983	0.105	0.109	0.119	0.129	0.137	0.143	0.155	0.165
in n-propanol	0.0798	0.0896	0.0961	0.107	0.113	0.121	0.137	0.147	0.156
in n-propyl acetate	0.00645	0.0076	0.009	0.0105	0.0127	0.0141	0.0165	0.0189	0.0219
in sec-butanol	0.0881	0.0973	0.105	0.11	0.117	0.127	0.137	0.151	0.162
in water	0.000498	0.000604	0.000739	0.000874	0.000994	0.00115	0.00133	0.00156	0.00184
